Measured values published in US11370785B2, “Multicyclic compounds as farnesoid X receptor modulators” (BRISTOL-MYERS SQUIBB COMPANY, priority 2017, dated 2022).
Where two headings read alike, the source gives them in different places.

Target: T1, human FXR (Homo sapiens, UniProt Q96RI1)
T1 construct: expressed in transfected cells; host or cells: HEK293 cells stably carrying a 5xGal4-response-element firefly luciferase reporter, transiently transfected with the pcDNA3.1-Gal4-FXR plasmid
T1 sequence (Q96RI1 262-486 limits assumed): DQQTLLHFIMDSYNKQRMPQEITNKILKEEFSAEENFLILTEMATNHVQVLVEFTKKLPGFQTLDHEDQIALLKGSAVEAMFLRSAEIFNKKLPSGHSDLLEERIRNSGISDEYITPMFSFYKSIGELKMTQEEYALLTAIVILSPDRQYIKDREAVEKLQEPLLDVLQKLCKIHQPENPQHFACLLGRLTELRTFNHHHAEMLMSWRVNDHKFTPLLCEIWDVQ
Assay: transient human FXR/Gal4-luciferase reporter assay
Assay type: cell-based
Conditions: Gal4-hFXR reporter in HEK293 cells
Description: The exemplified compounds of the present invention were tested in the transient human FXR/Gal4-luciferase reporter assay, and assay results were reported in Table 1 together with other analytical data.
A Gal4-hFXR fusion construct reporter system was used as the primary assay to characterize compound activity. A construct including 5 copies of the Gal4 promoter response element upstream of a firefly luciferase reporter cDNA was stably expressed in HEK293 cells. This reporter cell line was maintained in Dulbecco's Modified Eagle's medium (DMEM; Gibco) supplemented with 1% penicillin-streptomycin (P/S) solution, 500 μg/mL Zeocin and 10% charcoal/dextran-treated fetal bovine serum (cs-FBS) at 37° C. in a humidified 5% CO2 atmosphere. Another plasmid was constructed in which the human cytomegalovirus promoter in the pcDNA3.1 vector directs the expression of the cDNA encoding a fusion protein comprised of the DNA binding domain from the Gal4 transcription factor fused to the ligand binding domain from human FXR.
The day prior to transfection, the reporter cells in culture are detached from the plate with trypsin and plated into a T75 flask at a sufficient density to achieve approximately 90% confluence the next morning. The transfection reagents are prepared by separately diluting 25 μg of the pcDNA3.1-Gal4-FXR plasmid into 1.87 mL of Opti-MEM (Thermo-Fisher), and 40 μL of Lipofectamine 2000 (Thermo-Fisher) into 1.87 mL of Opti-MEM, and then adding the diluted DNA solution into the diluted Lipofectamine 2000 solution and incubating at room temperature for 15-20 minutes. The mixture is further diluted with 10 mL of a solution comprised of DMEM, 10% cs-FBS, and 1% P/S immediately prior to transferring to the cells. The maintenance culture media is aspirated from the cells and the final transfection mixture is added before the cells are incubated overnight at 37° C. in a humidified 5% CO2 atmosphere. This protocol can be scaled up, and the transiently transfected cells can be cryopreserved in an assay-ready format.
For compound testing, 100 nL of the compounds (serial dilutions in DMSO) are dispensed with an Echo acoustic dispenser (Labcyte) into the wells of a Corning/Costar clear bottom 384-well white plate. The transfected cells are harvested, counted, and diluted such that 10-25,000 cells in 25 μL are plated into each well of the 384-well compound assay plate. The compound-treated cells are incubated overnight at 37° C. in a humidified 5% CO2 atmosphere. The next morning 25 μL of Steady-Glo (Promega) are added to each well of the plate, the mixture is incubated for 15 min. with shaking, and luminescence is measured on an Envision (Perkin Elmer) plate reader. Background counts from cells treated with DMSO alone are subtracted from all raw counts, and the corrected values are converted to a percentage of the control response attained with 8 μM GW-4064.

[1] = relative to 8 μM GW-4064, read-out: FXR EC50

| SMILES | EC50 [1] [nM] | EC50 (read-out: HLE GAL-FXR EC50) [nM] |
| --- | --- | --- |
| Cc1cccc(Cl)c1-c1noc(C2CC2)c1C=C1CC2(CCN(c3ccc4c(C(=O)O)cn(C)c4c3)CC2)C1 [Example 59] | 10 |  |
| O=C(O)c1nc(C(F)(F)F)n2cc(N3CCC4(CC3)CC(=Cc3c(-c5ccccc5C(F)(F)F)noc3C3CC3)C4)ccc12 [Example 33] | 6 |  |
| O=C(O)c1cc(F)c2nc(N3C4CCC3CC3(CC(Nc5c(-c6c(Cl)cccc6Cl)noc5C5CC5)C3)C4)sc2c1 (stereo not shown) [Example 16] | 514 |  |
| O=C(O)c1cccc(CN2CCC3(CC2)CC(=Cc2c(-c4c(Cl)cccc4Cl)noc2C2CC2)C3)c1 [Example 9, 3-((2-((5-Cyclopropyl-3-(2,6-dichlorophenyl)isoxazol-4-yl)methylene)-7-azaspiro[3.5]nonan-7-yl)methyl)benzoic acid] |  | 959 |
| Cc1cc(C(=O)O)cc2sc(N3CCC4(CC3)CC(=Cc3c(C5CC5)nnn3-c3c(Cl)cccc3Cl)C4)nc12 [Example 20] | 252 |  |
| CN(C)C(=O)c1cc(C(F)(F)F)c2cc(N3CCC4(CC3)CC(=Cc3c(-c5ccccc5C(F)(F)F)noc3C(F)(F)F)C4)ccc2n1 [Example 191] | 306 |  |
| O=C(O)c1cc(OCCO)c2cc(N3CCC4(CC3)CC(=Cc3c(-c5c(Cl)cncc5Cl)noc3C3CC3)C4)ccc2n1 [Example 95] | 200 |  |
| COc1ccc(C(=O)O)c2ccc(N3CCC4(CC3)CC(=Cc3c(-c5c(Cl)cncc5Cl)noc3C3CC3)C4)nc12 [Example 119] | 336 |  |
| O=C(O)c1ccc2sc(N3CCC4(CC3)CC(=Cc3c(-c5c(Cl)cncc5Cl)noc3C3CC3)C4)nc2c1 [Example 103] | 249 |  |
| O=C(O)c1ccc(CCN2CCC3(CC2)CC(=Cc2c(-c4c(Cl)cccc4Cl)noc2C2CC2)C3)cc1 [Example 44] | 765 |  |
| O=C(O)c1ccc(N2CCC3(CC(=Cc4c(-c5c(Cl)cccc5Cl)noc4C4CC4)C3)C2)nc1 (stereo not shown) [Example 132] | 514 |  |
| O=C(O)c1cc(OC2COC2)c2cc(N3CCC4(CC3)CC(=Cc3c(-c5c(Cl)cncc5Cl)noc3C3CC3)C4)ccc2n1 [Example 139] | 47 |  |
| COc1cc(C(=O)O)nc2ccc(N3CCC4(CC3)CC(=Cc3c(-c5ccccc5C(F)(F)F)noc3C(F)(F)F)C4)cc12 [Example 168] | 23 |  |
| CCOc1cc(C(=O)O)ncc1N1CCC2(CC1)CC(=Cc1c(-c3ccccc3C(F)(F)F)noc1C1CC1)C2 [Example 141] | 442 |  |
| O=C(O)c1cc(F)c2nc(N3CCC4(CC3)CC(=Cc3c(-c5ccccc5C(F)(F)F)noc3C3CC3)C4)sc2c1 [Example 31] | 173 |  |
| O=C(O)c1cc(F)c2nc(N3CCC4(CC3)CC(=Cc3c(-c5c(Cl)cccc5Cl)cnn3C3CC3)C4)sc2c1 [Example 8, 2-(2-((1-Cyclopropyl-4-(2,6-dichlorophenyl)-1H-pyrazol-5-yl)methylene)-7-azaspiro[3.5]nonan-7-yl)-4-fluorobenzo[d]thiazole-6-carboxylic acid] |  | 422 |
| O=C(O)c1cc2ccc(N3CCC4(CC3)CC(=Cc3c(-c5ccccc5C(F)(F)F)noc3C3CC3)C4)cc2cn1 [Example 37] | 1410 |  |
| O=C(O)C1CCc2cc(N3CCC4(CC3)CC(=Cc3c(-c5ccccc5OC(F)(F)F)noc3C3CC3)C4)ccc2N1 (stereo not shown) [Example 112] | 1030 |  |
| O=C(O)c1cn(C(F)F)c2cc(N3CCC4(CC3)CC(=Cc3c(-c5c(Cl)cncc5Cl)noc3C3CC3)C4)ccc12 [Example 77] | 40 |  |
| Cn1cc(C(=O)O)c2ccc(N3CCC4(CC3)CC(=Cc3c(-c5ccccc5C(F)(F)F)noc3C3CC3)C4)cc21 [Example 39] | 4 |  |
| Cn1nnc(-c2ccc(N3CCC4(CC3)CC(=Cc3c(-c5c(Cl)cccc5Cl)noc3C3CC3)C4)cc2)n1 [Example 53] | 908 |  |
| O=C(O)C1(c2ccc(N3CCC4(CC3)CC(=Cc3c(-c5c(Cl)cccc5Cl)noc3C3CC3)C4)cc2)CCC1 [Example 42] | 210 |  |
| N#Cc1cccc(N2CCC3(CC2)CC(=Cc2c(-c4c(Cl)cccc4Cl)noc2C2CC2)C3)c1 [Example 49] | 2570 |  |
| O=C(O)c1cc(C(F)(F)F)c2cc(N3CCC4(CC3)CC(=Cc3c(-c5c(Cl)cncc5Cl)noc3C3CC3)C4)ccc2n1 [Example 73] | 18 |  |
| Cc1cc2cc(N3CCC4(CC3)CC(=Cc3c(-c5c(Cl)cccc5Cl)noc3C3CC3)C4)ccc2nc1C(=O)O [Example 43] | 1350 |  |
| O=C(O)c1ccc2cc(N3CCC4(CC3)CC(=Cc3c(-c5c(Cl)cccc5Cl)noc3C3CC3)C4)ccc2c1 [Example 47] | 53 |  |
| Cc1cccc(Cl)c1-c1noc(C2CC2)c1C=C1CC2(CCN(c3ccc4nc(C(=O)O)ccc4c3)CC2)C1 [Example 56] | 152 |  |
| O=C(O)c1ccc(N2CCC3(CC2)CC(=Cc2c(C4CC4)nnn2-c2c(Cl)cccc2Cl)C3)nc1 [Example 21] | 5280 |  |
| O=C(O)c1cc(F)c2nc(N3CCC4(CC(=Cc5c(-c6c(Cl)cccc6Cl)noc5C5CC5)C4)C3)sc2c1 (stereo not shown) [Example 131] | 72 |  |

Results, then the compound that gave them:

| EC50 [1] [nM] | EC50 (read-out: HLE GAL-FXR EC50) [nM] | SMILES |
| --- | --- | --- |
| 1990 |  | Cc1nc(C(=O)O)c2ccc(N3CCC4(CC3)CC(Cc3c(-c5ccccc5C(F)(F)F)noc3C3CC3)C4)cn12 [Example 75] |
| 6 |  | O=C(O)c1cc(OC2CCCC2)c2cc(N3CCC4(CC3)CC(Cc3c(-c5ccccc5C(F)(F)F)noc3C3CC3)C4)ccc2n1 [Example 123] |
| 44 |  | O=C(c1cc(OC2CCC2)c2cc(N3CCC4(CC3)CC(Cc3c(-c5ccccc5C(F)(F)F)noc3C3CC3)C4)ccc2n1)N1CCOCC1 [Example 181] |
|  | 85 | O=C(O)c1cc(F)c2nc(N3CCC4(CC3)CC(Cc3c(-c5ccccc5C(F)(F)F)noc3C3CC3)C4)sc2c1 [Example 3, 2-(2-((5-Cyclopropyl-3-(2-(trifluoromethyl)phenyl)isoxazol-4-yl)methyl)-7-azaspiro[3.5]nonan-7-yl)-4-fluorobenzo[d]thiazole-6-carboxylic acid] |
| 191 |  | COc1ccc(C(=O)O)c2ccc(N3CCC4(CC3)CC(Cc3c(-c5ccccc5C(F)(F)F)noc3C3CC3)C4)nc12 [Example 118] |
| 28 |  | Cn1cc(C(=O)O)c2ccc(N3CCC4(CC3)CC(Cc3c(-c5ccccc5C(F)(F)F)noc3C3CC3)C4)cc21 [Example 38] |
| 327 |  | CCOc1cc(C(N)=O)ncc1N1CCC2(CC1)CC(Cc1c(-c3ccccc3C(F)(F)F)noc1C1CC1)C2 [Example 144] |
| 38 |  | COCCOc1cc(C(=O)O)nc2ccc(N3CCC4(CC3)CC(=Cc3c(-c5ccccc5C(F)(F)F)noc3C3CC3)C4)cc12 [Example 98] |
| 36 |  | O=C(O[C@@H]1O[C@H](C(=O)O)[C@@H](O)[C@H](O)[C@H]1O)c1cc(C(F)(F)F)c2cc(N3CCC4(CC3)CC(Cc3c(-c5ccccc5C(F)(F)F)noc3C3CC3)C4)ccc2n1 [Example 145, (2S,3S,4S,5R,6S)-6-((6-(2-((5-Cyclopropyl-3-(2-(trifluoromethyl)phenyl)isoxazol-4-yl)methyl)-7-azaspiro[3.5]nonan-7-yl)-4-(trifluoromethyl)quinoline-2-carbonyl)oxy)-3,4,5-trihydroxytetrahydro-2H-pyran-2-carboxylic acid] |
| 125 |  | CCOC(=O)c1cc(C(F)(F)F)c2cc(N3CCC4(CC3)CC(Cc3c(-c5ccccc5C(F)(F)F)noc3C3CC3)C4)ccc2n1 [Example 129] |
| 51 |  | CCN(CC)C(=O)c1cc(OC2CCC2)c2cc(N3CCC4(CC3)CC(Cc3c(-c5ccccc5C(F)(F)F)noc3C3CC3)C4)ccc2n1 [Example 183] |
| 24 |  | COCCN(C)C(=O)c1cc(OC2CCC2)c2cc(N3CCC4(CC3)CC(Cc3c(-c5ccccc5C(F)(F)F)noc3C3CC3)C4)ccc2n1 [Example 182] |
| 2 |  | CC(C)Oc1cc(C(=O)O)nc2ccc(N3CCC4(CC3)CC(=Cc3c(-c5ccccc5OC(F)(F)F)noc3C3CC3)C4)cc12 [Example 80] |
| 154 |  | CN(C)C(=O)c1cc(C(F)(F)F)c2cc(N3CCC4(CC3)CC(Cc3c(-c5ccccc5C(F)(F)F)noc3C3CC3)C4)ccc2n1 [Example 178] |
